{
  "source": "patent US20260355239A1",
  "about": "“COMBINATION OF A T CELL THERAPY AND CONTINUOUS OR INTERMITTENT DGK INHIBITOR DOSING” (Juno Therapeutics, Inc., priority 2022, published 2026)",
  "key": {"Raji cells": {"system": "Raji cells", "test": "Rescue treatment: cytolytic activity of chronically stimulated CAR-T cells, 2D, Raji", "assay_type": "cell-based, human", "settings": "higher concentrations, 2D co-culture", "procedure": "Anti-CD19 CAR-expressing T cells, produced as described in Example 2, were chronically stimulated with plate-bound CAR-specific anti-idiotypic antibody for seven days as described in Example 3, but in the absence of Compound 17 during chronic stimulation. Instead, chronically stimulated CAR T cells were treated with Compound 17 during re-challenge with CD19-expressing tumor cells, after which cytolytic activity and cytokine production were assessed.\nThe chronically stimulated CAR-T cells were incubated with various CD19-expressing lymphoma cells at a 2.5:1 effector:target ratio in the presence of DGKi (0-1000 nM). The tumor cells were labeled with NucLight Red (NLR) and tumor cell number was monitored by Incucyte®."}, "[1]": {"system": "A549.CD19 and Granta-519 tumor spheroids", "test": "Cytolytic activity of chronically stimulated, concurrently treated CAR-T cells, 3D spheroids", "assay_type": "cell-based, human", "settings": "concurrent treatment during chronic stimulation, day 9", "procedure": "To simulate conditions of chronic stimulation, approximately 20,000 anti-CD19 CAR-expressing T cells of a combined CAR-T cell composition produced as described in Example 2 from two healthy adult donors were incubated with 30 µg/mL of plate-bound CAR-specific anti-idiotypic antibody (see, e.g., WO2018/023100) at 37 °C for a period of seven days. During this seven-day period, engineered CAR T cells were concurrently treated with Compound 17(0.1-1000 nM) or a vehicle control added at day 0.\nTo further assess activity of chronically stimulated cell, the chronically stimulated CAR-T cells that had been concurrently treated with DGKi were incubated with A549 CD19+ tumor spheroids or Granta-519 tumor spheroids to rechallenge the CAR-T cells at an effector to target ratio of 1:2 for up to 14 days. The tumor spheroids were engineered to express a red fluorescent dye to permit monitoring of tumor cell lysis by microscopy during the assay.\nThe antigen-specific cytolytic activity of the chronically stimulated CAR-expressing T cells was assessed by monitoring fluorescence (indicative of tumor cell lysis) over time. The tumor volume (normalized to time zero) was measured as the number of red calibrated units (RCU)×μm^2 area. […] Duplicate values for cell compositions manufactured from the two different healthy donors are shown."}, "[2]": {"system": "A549.CD19 tumor spheroids", "test": "Rescue treatment: cytolytic activity of chronically stimulated CAR-T cells, 3D spheroids, A549.CD19", "assay_type": "cell-based, human", "settings": "day 9"}, "[3]": {"system": "Nalm6 leukemia tumor cells", "test": "In vivo anti-tumor effect with CAR T cells, Nalm6-rFluc NSG mice (Example 10)", "procedure": "The in vivo anti-tumor effects of a continuous Compound 17 dosing regimen in combination with anti-CD19 CAR T cells were assessed in a second CD19-expressing tumor model."}, "anti-CD19 CAR-T cells": {"system": "anti-CD19 CAR-T cells", "test": "Phenotype of chronically stimulated CAR-T cells concurrently treated", "assay_type": "cell-based, human", "settings": "concurrent treatment 0.1-1000 nM, chronic stimulation 7 days", "source_text": "T cell compositions containing T cells expressing an exemplary anti-CD19 CAR were generated from leukapheresis samples from two healthy human adult donors by a process that included immunoaffinity-based selection of T cells by separately selecting CD4+ and CD8+ cells from the samples, resulting in two compositions enriched for CD4+ and CD8+ cells, respectively, per donor. Cells of the enriched CD4+ and CD8+ compositions were separately activated with anti-CD3/anti-CD28 beads and subjected to lentiviral transduction with a vector encoding an anti-CD19 CAR. The anti-CD19 CAR contained an anti-CD19 single-chain variable fragment (scFv) derived from a murine antibody (variable region derived from FMC63), an immunoglobulin-derived spacer, a transmembrane domain derived from CD28, a costimulatory region derived from 4-1BB, and a CD3-zeta intracellular signaling domain. The expression construct in the viral vector further contained sequences encoding a surrogate surface marker for CAR expression, which was separated from the CAR-encoding sequence by a T2A ribosome skip sequence. Transduced CD4+ or CD8+ T cell populations then were separately incubated in the presence of stimulating reagents for cell expansion. Expanded CD4+ and CD8+ cells were formulated and cryopreserved separately and stored. […]"}, "CAR-expressing T cells": {"system": "CAR-expressing T cells", "test": "Chronic stimulation assay, rescue treatment: tumor cell numbers, spheroid volume and cytokines during re-challenge of chronically stimulated CAR-expressing T cells (FIGS. 7A-8B)", "assay_type": "cell-based, human", "source_text": "FIGS. 7A-7B and 8A-8B show cytolytic activity and cytokine production during re-challenge in the presence of Compound 17 of chronically stimulated CAR-expressing T cells (rescue treatment).\nThese observations were made using a chronic stimulation assay to render T cells (e.g. CAR T cells) hypofunctional (e.g. reduced cytolysis and IL-2 secretion). Using this model, engineered T cells (e.g. CAR T cells or eTCR T cells) were examined to assess impact of DGKi, such as Compound 17, on function of the engineered T cells when present during (concurrent) or following (rescue) exposure to conditions leading to a hypofunctional, exhaustive state."}, "[4]": {"system": "HPV-expressing CaSki cells", "test": "Rescue treatment: cytolytic function of chronically stimulated eTCR T cells", "assay_type": "cell-based, human", "settings": "100 nM, 2.5:1 effector:target, 10 or 20 μg/mL anti-Vbeta chronic stimulation", "source_text": "Primary human CD4+ and CD8+ T cells were isolated from healthy donors by immunoaffinity-based methods. The isolated CD4+ and CD8+ T cells were combined and stimulated with an anti-CD3/anti-CD28 reagent, and then were transduced with a lentiviral vector encoding an anti-human papillomavirus 16 (anti-HPV16) eTCR. The nucleotide sequences encoding the beta chain and the alpha chain of the eTCR were separated by a sequence encoding a 2A ribosome skip element. Following transduction, the cells were cultured in media containing human serum and cytokines for 9-10 days prior to further assessment.\nTo assess the effects of rescue treatment with Compound 17 on cytolytic function, eTCR cells were stimulated for six days using 10 μg/mL or 20 μg/mL plate-bound antibody against the TCR Vbeta chain in the absence of Compound 17.\nFollowing chronic stimulation, the eTCR-T cells were co-cultured with HPV-expressing CaSki cells at a 2.5:1 effector:target ratio in the presence of Compound 17 at 100 nM. As a control, chronically stimulated eTCR cells were co-cultured with CaSki cells in the absence of Compound 17. The CaSki cells were transduced with NucLight Red (NLR) and tumor cell number was monitored by Incucyte®."}, "[5]": {"settings": "0.3 mg/kg oral once daily Days 1-30 with 1×10^6 CAR T cells, vs CAR T cells or Compound 17 alone"}},
  "data": [
    {"smiles": "CC[C@H]1CN([C@@H](CC)c2ccc(C(F)(F)F)cc2)[C@H](CC)CN1c1nc(=O)n(C)c2ccc(C#N)nc12", "note": "[Compound 17, 4-((2S,5R)-2,5-diethyl-4-((S)-1-(4-(trifluoromethyl)phenyl)propyl)piperazin-1-yl)-1-methyl-2-oxo-1,2-dihydropyrido[3,2-d]pyrimidine-6-carbonitrile]", "values": [
      {"measurement": "cytolytic activity of CAR T cells against Raji cells", "setting": "Raji cells", "value": "not Raji cells"},
      {"measurement": "cytolytic activity of CAR T cells (normalized tumor volume)", "setting": "[1]", "value": "modestly reduced the cytolytic activity of the CAR T cells"},
      {"measurement": "cytolytic activity of CAR T cells against A549.CD19 spheroids", "setting": "[2]", "value": "improved the cytolytic activity of CAR T cells against both A549.CD19 and Granta-519 tumor spheroids"},
      {"measurement": "CAR T cell expansion and/or persistence", "setting": "[3]; 0.3 mg/kg oral once daily Days 1-30 following CAR T cells", "value": "increased CAR T cell expansion and/or persistence"},
      {"measurement": "survival", "setting": "[3]; [5]", "value": "improved survival"},
      {"measurement": "tumor burden", "setting": "[3]; [5]", "value": "lowered tumor burden"},
      {"measurement": "tumor suppression (tumor control index)", "setting": "[3]; 0.3 mg/kg with CAR T cells, vs CAR T cells alone", "value": "enhanced tumor suppression"},
      {"measurement": "tumor burden vs historical CAR T cell data", "setting": "[3]; 0.3 mg/kg with CAR T cells, vs separate previous experiments without Compound 17", "value": "lower tumor burden than the mice in the separate previous experiments"},
      {"measurement": "single-agent effects", "setting": "[3]; 0.3 or 0.6 mg/kg oral once daily Days 1-30, without CAR T cells", "value": "No single-agent effects of Compound 17 were observed"},
      {"measurement": "populations of highly activated CAR-T cells (CD69 and PD-1 high)", "setting": "anti-CD19 CAR-T cells", "value": "increased populations of highly activated CAR-T cells"},
      {"measurement": "recovery of activity of exhausted T cells", "setting": "CAR-expressing T cells; chronically stimulated T cells exhibiting features of exhaustion", "value": "able to recover activity or have their activity restored or partially restored"},
      {"measurement": "rescue of T cell function of exhausted T cells", "setting": "CAR-expressing T cells; rescue treatment, later exposure", "value": "could rescue or restore T cell function, including cytokine production and cytolytic activity, of exhausted T cells"},
      {"measurement": "cytolytic function of chronically stimulated eTCR cells", "setting": "[4]", "value": "able to improve cytolytic function of chronically stimulated eTCR cells"}
    ]}
  ]
}
